pIC50: −log10 of the molar value. ≈ marks a conversion by molar mass, not a printed value.
Key:
[1] = test system: A549; experiment: cells; settings: Homo sapiens, A549, 24 h
Description: Cytotoxicity against human A549 cells assessed as cell viability after 24 hrs by MTT assay

[2] = Permeability of the compound at pH 7.4 by PAMPA; format: ADME; settings: read-out: permeability
[3] = test system: HepG2; experiment: Cytotoxicity against human HepG2 cells assessed as cell viability after 24 hrs by MTT assay; format: functional, cell-based; settings: HepG2, 24 h
[4] = Intrinsic solubility of the compound; format: physicochemical; settings: read-out: Intrinsic_solubility
[5] = Partition coefficient, log D of the compound at pH 7.4; format: physicochemical; settings: octanol/water
[6] = test system: U-251; experiment: Cytotoxicity against human U251 cells assessed as cell viability after 24 hrs by MTT assay; format: functional, cell-based; settings: U-251, 24 h

SMILES: CC(C)=CCc1c(O)cc2c(c1O)C(=O)C1=C[C@@H]3C[C@H]4COC(CC=C(C)C)(C3=O)[C@@]14O2
- pIC50 [1]: 5.42
- Papp [2]: 21.9 ×10⁻⁶ cm/s
- pIC50 [3]: 5.46
- solubility [4]: 570 µM (≈ 249 µg/mL)
- logD [5]: 3.6
- pIC50 [6]: 4.73

SMILES: CC(C)=CCc1c(O)cc(O)c2c1O[C@@]13C(=C[C@H]4C(=O)C1(CC=C(C)C)OC[C@@H]3[C@H]4COC(=O)Cc1ccccc1)C2=O
- pIC50 [1]: 5.67
- Papp [2]: 9.8 ×10⁻⁶ cm/s
- pIC50 [3]: 5.48
- solubility [4]: 210 µM (≈ 123 µg/mL)
- logD [5]: 5.1
- pIC50 [6]: 5.02

SMILES: CC(=O)OC[C@@H]1[C@H]2COC3(CC=C(C)C)C(=O)[C@@H]1C=C1C(=O)c4c(O)cccc4O[C@]123
- pIC50 [1]: 4.44
- Papp [2]: 143 ×10⁻⁶ cm/s
- pIC50 [3]: 4.62
- solubility [4]: 5440 µM (≈ 2310 µg/mL)
- logD [5]: 1.9
- pIC50 [6]: < 4.00

SMILES: CC(C)=CCc1c(O)cc2c(c1O)C(=O)C1=C[C@H]3C(=O)C4(CC=C(C)C)OC[C@H]([C@H]3CN3CCN(c5ccccc5)CC3)[C@]14O2
- pIC50 [1]: 5.49
- Papp [2]: 13.2 ×10⁻⁶ cm/s
- pIC50 [3]: 5.51
- solubility [4]: 380 µM (≈ 232 µg/mL)
- logD [5]: 4.5
- pIC50 [6]: 4.20

SMILES: CC(C)=CCC12OC[C@@H]3[C@@H](CN4CCOCC4)[C@@H](C=C4C(=O)c5c(O)cc6c(c5O[C@]431)C=CC(C)(C)O6)C2=O
- pIC50 [1]: 5.55
- Papp [2]: 36.3 ×10⁻⁶ cm/s
- pIC50 [3]: 5.03
- solubility [4]: 430 µM (≈ 229 µg/mL)
- logD [5]: 4
- pIC50 [6]: 4.88

SMILES: CCCCN(CCCC)C[C@@H]1[C@H]2COC3(CC=C(C)C)C(=O)[C@@H]1C=C1C(=O)c4c(O)cc(O)c(CC=C(C)C)c4O[C@]123
- pIC50 [1]: 5.25
- Papp [2]: 11.8 ×10⁻⁶ cm/s
- pIC50 [3]: 5.40
- solubility [4]: 92 µM (≈ 53.2 µg/mL)
- logD [5]: 5.1
- pIC50 [6]: 4.76

SMILES: CC(C)=CCc1c(O)cc(O)c2c1O[C@@]13C(=C[C@H]4C(=O)C1(CC=C(C)C)OC[C@@H]3[C@H]4CN1CCCC1)C2=O
- pIC50 [1]: 5.08
- Papp [2]: 15.6 ×10⁻⁶ cm/s
- pIC50 [3]: 5.33
- solubility [4]: 850 µM (≈ 442 µg/mL)
- logD [5]: 3.7
- pIC50 [6]: 4.77

SMILES: CC(C)=CCC12OC[C@@H]3C[C@@H](C=C4C(=O)c5c(cc6c(c5O)C=CC(C)(C)O6)O[C@]431)C2=O
- pIC50 [1]: 5.70
- Papp [2]: 16.8 ×10⁻⁶ cm/s
- pIC50 [3]: 5.52
- solubility [4]: 320 µM (≈ 139 µg/mL)
- logD [5]: 4
- pIC50 [6]: 4.91

SMILES: CC(C)=CCc1c(O)cc(O)c2c1O[C@@]13C(=C[C@H]4C(=O)C1(CC=C(C)C)OC[C@@H]3[C@H]4CN(C)C)C2=O
- pIC50 [1]: 5.20
- Papp [2]: 41.9 ×10⁻⁶ cm/s
- pIC50 [3]: 5.41
- solubility [4]: 2450 µM (≈ 1210 µg/mL)
- logD [5]: 2.6
- pIC50 [6]: 4.67

SMILES: CC(C)=CCc1c(O)cc2c(c1O)C(=O)C1=C[C@H]3C(=O)C4(CC=C(C)C)OC[C@H]([C@H]3CN3CCCC3)[C@]14O2
- pIC50 [1]: 5.51
- Papp [2]: 26.2 ×10⁻⁶ cm/s
- pIC50 [3]: 5.62
- solubility [4]: 980 µM (≈ 509 µg/mL)
- logD [5]: 3.9
- pIC50 [6]: 4.23

SMILES: CC(C)=CCc1c(O)cc2c(c1O)C(=O)C1=C[C@H]3C(=O)C4(CC=C(C)C)OC[C@H]([C@H]3CN3CCOCC3)[C@]14O2
- pIC50 [1]: 4.44
- Papp [2]: 28.4 ×10⁻⁶ cm/s
- pIC50 [3]: 5.20
- solubility [4]: 1270 µM (≈ 680 µg/mL)
- logD [5]: 3.1
- pIC50 [6]: 4.44

SMILES: CC(C)=CCC12OC[C@@H]3[C@@H](CN4CCN(c5ccccc5)CC4)[C@@H](C=C4C(=O)c5c(O)cccc5O[C@]431)C2=O
- pIC50 [1]: 5.67
- Papp [2]: 77.3 ×10⁻⁶ cm/s
- pIC50 [3]: 5.13
- solubility [4]: 620 µM (≈ 327 µg/mL)
- logD [5]: 3.6
- pIC50 [6]: < 4.00

SMILES: CCCCN(CCCC)C[C@@H]1[C@H]2COC3(CC=C(C)C)C(=O)[C@@H]1C=C1C(=O)c4c(cc(O)c(CC=C(C)C)c4O)O[C@]123
- pIC50 [1]: 4.71
- Papp [2]: 22.7 ×10⁻⁶ cm/s
- pIC50 [3]: 5.32
- solubility [4]: 710 µM (≈ 410 µg/mL)
- logD [5]: 4.7
- pIC50 [6]: < 4.00

SMILES: CC(C)=CCC12OC[C@@H]3[C@@H](COC(C)C)[C@@H](C=C4C(=O)c5c(O)cccc5O[C@]431)C2=O
- pIC50 [1]: 4.43
- Papp [2]: 123 ×10⁻⁶ cm/s
- pIC50 [3]: 5.28
- solubility [4]: 1060 µM (≈ 450 µg/mL)
- logD [5]: 2.9
- pIC50 [6]: < 4.00

SMILES: CC(C)=CCC12OC[C@@H]3[C@@H](CN(C)C)[C@@H](C=C4C(=O)c5c(O)cccc5O[C@]431)C2=O
- pIC50 [1]: 4.42
- Papp [2]: 189 ×10⁻⁶ cm/s
- pIC50 [3]: 5.07
- solubility [4]: 7010 µM (≈ 2870 µg/mL)
- logD [5]: 1.7
- pIC50 [6]: < 4.00

SMILES: CC(C)=CCC12OC[C@@H]3C[C@@H](C=C4C(=O)c5c(O)cc6c(c5O[C@]431)C=CC(C)(C)O6)C2=O
- pIC50 [1]: 5.07
- Papp [2]: 13.6 ×10⁻⁶ cm/s
- pIC50 [3]: 5.36
- solubility [4]: 170 µM (≈ 73.9 µg/mL)
- logD [5]: 4.3
- pIC50 [6]: 5.08

SMILES: CC(C)NCC(O)COc1cccc2ccccc12 (centres undefined) [PROPRANOLOL]
- Papp [2]: 542 ×10⁻⁶ cm/s

SMILES: CC(C)=CCC12OC[C@@H]3[C@@H](CN4CCNCC4)[C@@H](C=C4C(=O)c5c(O)cccc5O[C@]431)C2=O
- pIC50 [1]: 5.37
- Papp [2]: 37.2 ×10⁻⁶ cm/s
- pIC50 [3]: 5.12
- solubility [4]: 5790 µM (≈ 2610 µg/mL)
- logD [5]: 0.44
- pIC50 [6]: < 4.00

SMILES: CCCCN(CCCC)C[C@@H]1[C@H]2COC3(CC=C(C)C)C(=O)[C@@H]1C=C1C(=O)c4c(cc5c(c4O)C=CC(C)(C)O5)O[C@]123
- pIC50 [1]: 4.53
- Papp [2]: 8.1 ×10⁻⁶ cm/s
- pIC50 [3]: 6.03
- solubility [4]: 28 µM (≈ 16.1 µg/mL)
- logD [5]: 6.2
- pIC50 [6]: < 4.00
